# Laboratory results: patent US20240002441A1, “PEPTIDES AND USES THEREOF IN MODULATION OF AMYLOID-BETA PROTEIN DEGRADING PROTEASES” (priority 2020, published 2024)
# How the values were obtained:
# Type in all cases: biochemical
# ECE2 = target: T1, ECE2 (Homo sapiens, UniProt P0DPD6); assay: QFS assay of Aβ-degrading enzymes: ECE2 (Example 6)
# T1 construct: purchased R & D systems 1645-ZN-010
# T1 sequence (P0DPD6 1-811): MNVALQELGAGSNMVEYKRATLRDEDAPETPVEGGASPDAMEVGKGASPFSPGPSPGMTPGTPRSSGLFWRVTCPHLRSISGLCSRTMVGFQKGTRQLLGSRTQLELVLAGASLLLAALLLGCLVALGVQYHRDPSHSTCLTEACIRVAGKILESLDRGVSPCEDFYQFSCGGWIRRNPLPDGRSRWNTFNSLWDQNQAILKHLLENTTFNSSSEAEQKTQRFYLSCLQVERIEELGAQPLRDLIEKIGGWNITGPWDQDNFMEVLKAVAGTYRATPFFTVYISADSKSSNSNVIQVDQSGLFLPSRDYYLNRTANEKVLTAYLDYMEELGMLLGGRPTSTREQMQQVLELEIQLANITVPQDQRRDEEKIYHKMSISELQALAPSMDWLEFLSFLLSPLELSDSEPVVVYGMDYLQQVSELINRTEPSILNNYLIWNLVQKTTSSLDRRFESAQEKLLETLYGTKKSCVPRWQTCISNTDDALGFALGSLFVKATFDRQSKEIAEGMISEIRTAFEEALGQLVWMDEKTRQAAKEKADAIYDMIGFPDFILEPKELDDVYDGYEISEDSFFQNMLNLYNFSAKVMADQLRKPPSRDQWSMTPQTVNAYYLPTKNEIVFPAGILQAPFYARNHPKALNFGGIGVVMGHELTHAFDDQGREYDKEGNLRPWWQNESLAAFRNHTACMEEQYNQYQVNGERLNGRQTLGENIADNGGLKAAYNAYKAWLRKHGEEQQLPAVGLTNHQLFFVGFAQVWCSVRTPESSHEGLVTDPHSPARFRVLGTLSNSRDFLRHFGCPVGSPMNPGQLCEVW
# Protocol: (§1) Plate reader-based enzyme assays were performed using a quenched fluorescent substrate (QFS) in a 96-well format using a SpectraMAX M4 Microplate reader (Molecular Devices). The increase in fluorescence following addition of QFS (40 μM) was taken as evidence of enzyme activity. Fluorescence was monitored over 2 h at 37° C. using κEx=320 nm and λEm=405 nm. Assays were conducted in black 96-well plates. Specific enzyme activity was expressed as a rate of substrate cleavage calculated using a standard curve of 7-methoxy-coumarin-4-acetic acid.
# In all plate reader-based enzyme assays using QFS, the reaction rate (μmol of substrate cleaved/min) was calculated using linear regression analysis (GraphPad Prism software version 8.01). The reaction rates calculated were used to generate the enzyme kinetic parameters Vmax and Km through non-linear regression analysis (GraphPad Prism software, version 8.01; Michaelis-Menten equation). Where indicated, enzyme activity in the presence of peptide was expressed as a % of the enzyme alone. Data were expressed as mean±SEM and statistical significance was determined using t-tests or one-way ANOVAs followed by Tukey's post-hoc test. P<0.05 was considered as statistically significant. […]
# SEQ ID NO:2 was assessed in a QFS assay against enzymes NEP, ECE1, ECE2, ACE1, ACE2, IDE and MMP-2 using the method in Example 2 and the following procedure. […]
# ACE2 = target: T2, ACE2 (Homo sapiens, UniProt Q9BYF1); assay: QFS assay of Aβ-degrading enzymes: ACE2 (Example 6)
# T2 construct: purchased R & D systems 933-ZN-010
# T2 sequence (Q9BYF1 18-805): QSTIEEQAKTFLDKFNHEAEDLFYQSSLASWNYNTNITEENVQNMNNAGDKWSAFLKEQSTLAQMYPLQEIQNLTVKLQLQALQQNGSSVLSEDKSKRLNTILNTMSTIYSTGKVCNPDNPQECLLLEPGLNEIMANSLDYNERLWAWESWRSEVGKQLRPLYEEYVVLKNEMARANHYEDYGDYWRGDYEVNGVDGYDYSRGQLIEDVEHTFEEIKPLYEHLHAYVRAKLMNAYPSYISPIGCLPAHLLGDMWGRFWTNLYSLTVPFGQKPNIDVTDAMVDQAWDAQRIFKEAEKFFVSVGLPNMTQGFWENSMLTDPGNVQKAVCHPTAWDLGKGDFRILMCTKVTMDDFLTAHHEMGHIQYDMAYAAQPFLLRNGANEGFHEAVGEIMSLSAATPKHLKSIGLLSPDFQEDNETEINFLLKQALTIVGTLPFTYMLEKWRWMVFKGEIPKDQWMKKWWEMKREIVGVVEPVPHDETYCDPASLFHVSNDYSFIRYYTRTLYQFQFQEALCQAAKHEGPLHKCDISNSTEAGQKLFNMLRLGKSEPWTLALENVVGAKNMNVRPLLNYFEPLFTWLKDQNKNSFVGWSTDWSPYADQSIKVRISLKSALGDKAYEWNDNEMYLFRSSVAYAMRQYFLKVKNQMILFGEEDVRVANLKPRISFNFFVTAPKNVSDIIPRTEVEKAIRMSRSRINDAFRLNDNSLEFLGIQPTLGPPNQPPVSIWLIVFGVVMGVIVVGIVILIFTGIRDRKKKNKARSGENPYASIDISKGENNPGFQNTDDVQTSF
# Protocol: as §1
# (§2) In all plate reader-based enzyme assays using QFS, the reaction rate (μmol of substrate cleaved/min) was calculated using linear regression analysis (GraphPad Prism software version 8.01). The reaction rates calculated were used to generate the enzyme kinetic parameters Vmax and Km through non-linear regression analysis (GraphPad Prism software, version 8.01; Michaelis-Menten equation). Where indicated, enzyme activity in the presence of peptide was expressed as a % of the enzyme alone. Data were expressed as mean±SEM and statistical significance was determined using t-tests or one-way ANOVAs followed by Tukey's post-hoc test. P<0.05 was considered as statistically significant. In all assays conducted using 96-well plates, the reaction mixtures in each well were considered an independent experiment.
# (§3) SEQ ID NO:2 was assessed in a QFS assay against enzymes NEP, ECE1, ECE2, ACE1, ACE2, IDE and MMP-2 using the method in Example 2 and the following procedure. NEP, ACE1, ECE2 (0.05 ng/μL), ACE2, IDE (0.10 ng/μL), and ECE1 (6.4 ng/μL) were incubated with SEQ ID NO:2 (0.9-26 μM) or scrambled control (9 μM) for 1 h at 37° C. Prior to use, MMP2 (0.50 ng/μL) was activated using p-aminophenylmercuric acetate to a final concentration of 100 μM for 1 h at 37° C. Following activation, MMP2 was incubated with SEQ ID NO:2 for 1 h at 37° C. before adding the appropriate QFS.
# NEP = target: T3, NEP (Homo sapiens, UniProt P08473); assay: NEP enzyme kinetics study with QFS (Example 5); conditions: NEP QFS 0-120 μM; pre-incubation 1 h at 37° C.
# T3 construct: purchased R & D systems 1182-ZNC-010
# T3 sequence (P08473 whole entry): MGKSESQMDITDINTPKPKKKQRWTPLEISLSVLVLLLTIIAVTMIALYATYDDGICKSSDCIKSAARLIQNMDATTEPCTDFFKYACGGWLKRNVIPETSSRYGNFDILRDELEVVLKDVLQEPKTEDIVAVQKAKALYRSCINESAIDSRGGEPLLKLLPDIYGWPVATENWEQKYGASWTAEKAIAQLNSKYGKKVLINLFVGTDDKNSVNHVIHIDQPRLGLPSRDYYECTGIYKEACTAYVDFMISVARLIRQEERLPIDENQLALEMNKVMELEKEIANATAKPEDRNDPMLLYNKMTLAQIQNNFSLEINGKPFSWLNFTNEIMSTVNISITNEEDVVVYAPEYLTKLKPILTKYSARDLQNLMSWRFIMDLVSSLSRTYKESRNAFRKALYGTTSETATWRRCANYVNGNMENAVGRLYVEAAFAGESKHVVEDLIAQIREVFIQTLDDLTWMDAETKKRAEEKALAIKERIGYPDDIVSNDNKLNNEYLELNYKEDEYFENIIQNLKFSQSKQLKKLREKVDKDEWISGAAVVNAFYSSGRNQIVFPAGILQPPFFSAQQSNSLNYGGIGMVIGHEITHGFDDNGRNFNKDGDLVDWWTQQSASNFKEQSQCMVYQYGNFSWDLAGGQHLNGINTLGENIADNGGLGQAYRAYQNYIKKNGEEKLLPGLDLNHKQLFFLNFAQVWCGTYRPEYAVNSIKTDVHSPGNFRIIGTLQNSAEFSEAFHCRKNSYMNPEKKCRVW
# Protocol: as §1
# as §2, with “experiment. […]” for “experiment.”
# ACE1 = target: T4, ACE1 (Homo sapiens, UniProt P12821); assay: QFS assay of Aβ-degrading enzymes: ACE1 (Example 6)
# T4 construct: purchased Sigma Aldrich SRP6270-10UG
# T4 sequence (P12821 30-1306): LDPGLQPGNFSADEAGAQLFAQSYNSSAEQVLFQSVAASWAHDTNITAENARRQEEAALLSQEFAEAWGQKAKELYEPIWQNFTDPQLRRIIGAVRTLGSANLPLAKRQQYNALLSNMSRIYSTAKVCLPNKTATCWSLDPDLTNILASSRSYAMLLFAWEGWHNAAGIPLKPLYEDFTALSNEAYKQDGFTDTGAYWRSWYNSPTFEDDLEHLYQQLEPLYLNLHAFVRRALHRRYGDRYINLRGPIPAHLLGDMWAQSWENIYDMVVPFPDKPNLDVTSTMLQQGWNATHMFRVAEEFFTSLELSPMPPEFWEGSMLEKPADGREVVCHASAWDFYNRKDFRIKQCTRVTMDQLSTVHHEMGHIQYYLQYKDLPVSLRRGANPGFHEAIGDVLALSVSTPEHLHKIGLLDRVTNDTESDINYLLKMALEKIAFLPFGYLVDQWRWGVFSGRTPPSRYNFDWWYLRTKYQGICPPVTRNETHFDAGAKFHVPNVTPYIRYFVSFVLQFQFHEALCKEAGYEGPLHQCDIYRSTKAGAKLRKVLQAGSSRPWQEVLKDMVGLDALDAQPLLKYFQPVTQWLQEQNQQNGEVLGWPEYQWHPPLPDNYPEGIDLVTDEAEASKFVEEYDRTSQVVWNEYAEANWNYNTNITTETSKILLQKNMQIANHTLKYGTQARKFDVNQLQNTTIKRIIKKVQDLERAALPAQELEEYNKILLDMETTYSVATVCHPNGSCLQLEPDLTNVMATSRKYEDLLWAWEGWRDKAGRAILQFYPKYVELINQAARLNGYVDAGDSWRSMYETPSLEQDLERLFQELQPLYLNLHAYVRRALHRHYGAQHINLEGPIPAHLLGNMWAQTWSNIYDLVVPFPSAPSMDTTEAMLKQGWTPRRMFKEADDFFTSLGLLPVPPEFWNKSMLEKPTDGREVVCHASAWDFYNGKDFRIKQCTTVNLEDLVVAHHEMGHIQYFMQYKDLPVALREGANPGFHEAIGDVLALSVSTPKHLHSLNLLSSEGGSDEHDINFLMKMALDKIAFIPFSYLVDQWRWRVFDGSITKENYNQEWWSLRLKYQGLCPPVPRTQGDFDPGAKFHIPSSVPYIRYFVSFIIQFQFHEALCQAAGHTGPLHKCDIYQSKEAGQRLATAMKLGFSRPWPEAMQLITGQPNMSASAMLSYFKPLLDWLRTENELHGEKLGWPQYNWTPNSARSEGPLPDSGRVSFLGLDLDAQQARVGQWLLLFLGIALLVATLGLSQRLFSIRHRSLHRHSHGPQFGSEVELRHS
# Protocol: as §1, §2, §3
substance,measurement,setting,value
"H-SLFELGKMIL-NH2 [SEQ ID NO:2, H2N-SLFELGKMIL-NH2]",ECE2 activity compared with respective enzyme alone,ECE2; peptide 2 μM (FIG. 2c),did not increase
same,"ECE2 activity, concentration dependence",ECE2; peptide 0.9-26 μM,did not affect
same,ACE2 activity compared with respective enzyme alone,ACE2; peptide 2 μM (FIG. 2c),significantly increased
same,activity of ACE2 as % of enzyme alone controls,ACE2; peptide 9 μM,283%
same,"ACE2 activity, concentration dependence",ACE2; peptide 0.9-26 μM,increased the activity
same,vmax of rhNEP in the presence of peptide,NEP,0.035±0.002 μmol substrate cleaved/min
same,ACE1 activity compared with respective enzyme alone,ACE1; peptide 2 μM (FIG. 2c),significantly increased
same,ACE1 activity compared with respective enzyme alone,"ACE1; peptide 9 μM, significantly less compared with ACE2 and NEP",significantly higher
same,"ACE1 activity, concentration dependence",ACE1; peptide 0.9-26 μM,increased the activity
